Experimental data taken from US9623021B2, “Nuclear receptor binding agents” (GTX, Inc., priority 2007, dated 2017).
pKi: −log10 of the molar value.

Assays:
[1] = target: ERα ligand binding domain (Homo sapiens (Human), UniProt P03372); assay: Competitive [3H]-estradiol radioligand binding, ERα (Example 21)
Description: (§1) ER binding affinity was determined via one of the following methods:
(§2) Briefly, the incubation mixture was filtered through a high affinity protein binding filter, and washed several times to remove any unbound radioactivity. The filter plate was air dried and sealed on the bottom.
(§3) Following incubation, plates were harvested onto GF/B filters and radioactivity was measured with a TopCount NXT (PerkinElmer). Nonspecific binding was subtracted from total binding to yield specific binding.

ER-α = ER-α (Rattus norvegicus (Rat), UniProt P06211); format: cell-based; conditions: 100 nM NRBA compared to 1 nM estradiol
Description: COS or 293 cells were plated in DME without phenol red+10% cs FBS at 90,000 cells per well in 24 well plates, and were transfected with 0.25 μg of the vector “ERE-LUC”, where a firefly luciferase gene was driven by two estrogen responsive elements and 0.02 μg of the control CMV-LUC, Renilla where a luciferase gene was driven by a CMV promoter. […] All the receptors were cloned from rat tissue into the PCR3.1 vector backbone. Twenty four hours post transfection, cells were treated with compounds of this invention, estrogen, DHT, and other NRBAs or combinations thereof. Cells were harvested 48 hrs after transfection, and assayed for firefly and Renilla luciferase activity.

[2] = tested on: LNCaP prostate cancer cells; assay: LNCaP prostate cancer cell proliferation (3H thymidine incorporation); format: cell-based; conditions: treated for 6 days, FIG. 21
Description: (§4) The effects of treatment of an ER-β selective NRBA of this invention on cancer cell proliferation was examined using LNCaP prostate cancer cells and C-26 colon cancer cells. LNCaP or C-26 cells were plated in growth medium in 24 well and 6 well plates, respectively. LNCaP cells were treated for 6 days and C-26 cells were treated for 3 days at the indicated concentration. ^3H thymidine incorporation was measured at the end of treatment as an indicator of cell proliferation.

[3] = target: ERβ ligand binding domain (Homo sapiens (Human), UniProt Q92731); assay: Competitive [3H]-estradiol radioligand binding, ERβ (Example 21); conditions: ratio between the binding constants of ER-α and ER-β
ERβ ligand binding domain, sequence (Q92731 264-498, species assumed): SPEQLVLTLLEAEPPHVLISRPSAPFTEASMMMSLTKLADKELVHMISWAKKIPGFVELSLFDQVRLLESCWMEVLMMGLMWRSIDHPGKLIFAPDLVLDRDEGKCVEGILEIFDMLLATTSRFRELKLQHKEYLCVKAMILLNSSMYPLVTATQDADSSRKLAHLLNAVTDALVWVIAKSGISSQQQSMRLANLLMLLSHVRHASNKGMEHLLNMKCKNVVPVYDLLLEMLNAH
Description: as §1, §2, §3

paw edema = assay: Carrageenan-induced paw edema (acute inflammation model); format: in vivo; conditions: per-oral, 1 hr prior to Carrageenan challenge; measured 4 hours post-Carrageenan injection
Description: FIG. 14 depicts the effect of 12b on the edema volume which was induced by Carrageenan (i.e. Carrageenan-induce raw paw edema as an acute inflammation model).
To determine the anti-inflammatory effects of ER-β NRBAs in vivo, animal paws were injected with carrageenan, which elicits an acute local inflammatory response. Per-oral treatment of 12b.

C-26 colon cancer cells = assay: C-26 colon cancer cell proliferation (3H thymidine incorporation); format: cell-based; conditions: treated for 3 days, FIG. 22
Description: as §4

[4] = tested on: LNCaP cells and human prostate stromal cells xenograft; assay: LNCaP-stromal cell xenograft tumor growth; format: in vivo, nude mice; conditions: 30 mg/kg/day for 21 days, by day 21
Description: Prostate tumor xenografts were established with LNCaP cells and human prostate stromal cells in nude mice to establish the in vivo anti-proliferative effects of these ER-β NRBAs. A 4:1 ratio (based on cell number) of LNCaP:stroma cells was injected subcutaneously in nude mice and allowed to grow until they attained 100 mm^3 in volume, as measured by calipers. […] Tumor volumes were measured twice a week and percent tumor volume calculated, after 10, 14 and 21 days.

uterus = assay: Uterotropic assay; conditions: 10 mg/kg/day orally, 3 days
Description: Statistical differences among groups were evaluated by one-way ANOVA. Rats were treated for 3 consecutive days and then sacrificed 24 h after the last dose. The body of the uterus was cut just above its junction with the cervix and at the junction of the uterine horns with the ovaries. The uterus was weighed with and without intrauterine fluid. Statistical comparisons were made between the weights of empty uteri.

[5] = tested on: Rat Aortic Smooth Muscle Cells (RASMC); assay: RASMC cell proliferation assay (WST-1); conditions: 10 μM and 30 μM

ERα ligand binding domain, sequence (P03372 whole entry, looked up, species assumed, the tested form may be a part): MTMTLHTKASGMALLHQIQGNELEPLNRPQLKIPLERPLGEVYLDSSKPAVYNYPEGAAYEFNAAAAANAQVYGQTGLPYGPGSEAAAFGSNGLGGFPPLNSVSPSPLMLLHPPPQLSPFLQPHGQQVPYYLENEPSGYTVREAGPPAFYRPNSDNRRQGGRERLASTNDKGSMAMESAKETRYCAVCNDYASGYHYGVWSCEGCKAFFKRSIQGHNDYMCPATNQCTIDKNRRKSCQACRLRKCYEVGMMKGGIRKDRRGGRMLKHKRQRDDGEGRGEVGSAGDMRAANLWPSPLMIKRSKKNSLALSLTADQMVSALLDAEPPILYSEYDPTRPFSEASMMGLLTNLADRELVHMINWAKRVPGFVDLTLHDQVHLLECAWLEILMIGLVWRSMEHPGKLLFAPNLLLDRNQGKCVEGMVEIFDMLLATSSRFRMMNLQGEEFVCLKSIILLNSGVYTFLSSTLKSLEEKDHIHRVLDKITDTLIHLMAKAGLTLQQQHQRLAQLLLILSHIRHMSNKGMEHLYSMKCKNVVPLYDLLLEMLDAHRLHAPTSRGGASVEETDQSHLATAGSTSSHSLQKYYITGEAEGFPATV

SMILES | pKi [1] | Estradiol activity at 100 nM, ER-α (ER-α) | growth of LNCaP prostate cancer cells [2] | Ki Ratio (ER-α/ER-β) [3] | reduction in paw edema (paw edema) | growth of C-26 colon cancer cells (C-26 colon cancer cells) | tumor growth (percent tumor volume) [4] | uterine growth / uterine weight (uterus) | cell numbers compared to day 0 [5]
O=c1c2ccc(O)cc2c(Br)cn1-c1ccc(O)cc1 [Compound 12b, 4-bromo-6-hydroxy-2-(4-hydroxyphenyl)-isoquinolin-1(2H)-one] | 6.00 | 31.2% | significantly inhibited the growth | 20 | 53% | significantly inhibited the growth | inhibited the growth of tumor significantly | – | –
CC/C(=C(\c1ccccc1)c1ccc(OCCN(C)C)cc1)c1ccccc1 [Tamoxifen, tamoxifen] | – | – | – | – | – | – | – | stimulated the proliferation of uterus significantly | toxicity
